The term IC50 denotes the point on the concentration scale where inhibition reaches its midpoint.

Test [1] concerns the target T1, human CLK1 (Homo sapiens, UniProt P49759).
T1 construct: Recombinant human CLK1 (129-end); GST (N); purchased SignalChem C57-11G; host or cells: Sf9 insect cells
Nature of the test: CLK1 enzyme assay (ADP-Glo). In kind it is biochemical. To be noted: ADP-Glo, ATP 10 μM; read-out: CLK1 IC50. The essentials:
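GST-tagged CLK1 (129-end, Sf9-expressed) at 16 nM was preincubated with compound 30 min at 25 °C in 40 mM Tris pH 7.5, 20 mM MgCl2, 0.1 mg/ml BSA, 50 μM DTT. Reaction with 2 μM substrate and 10 μM ATP ran 60 min at 25 °C. ADP-Glo luminescence gave IC50 by four-parameter fit.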
(ADP-Glo turns the ADP formed in a reaction into a luminescent signal.)

Test [2] has as its system Neonatal Rat Ventricular Myocytes (NRVMs). In words: Myocyte proliferation assay (EdU assay) in neonatal rat ventricular myocytes. In kind it is cell-based. To be noted: growth relative to blank myocyte growth without compound added; for Avg 1 uM (average myocyte proliferation): compound 1 uM; for Avg 3 uM (average myocyte proliferation): compound 3 uM; for Avg 10 uM (average myocyte proliferation): compound 10 uM. The method, boiled down: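 Neonatal rat ventricular myocytes, fibroblast-depleted by preplating, serum-starved 24 h (2% FBS/ITS), then given compound at 10, 3 or 1 uM in 6% FBS medium for 36 h before 12 h EdU labelling. Fixed cells stained for EdU (Click-iT), ab8295 primary antibody and DAPI; quantified by high-content confocal imaging.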

T1 sequence (P49759 129-484 limits assumed): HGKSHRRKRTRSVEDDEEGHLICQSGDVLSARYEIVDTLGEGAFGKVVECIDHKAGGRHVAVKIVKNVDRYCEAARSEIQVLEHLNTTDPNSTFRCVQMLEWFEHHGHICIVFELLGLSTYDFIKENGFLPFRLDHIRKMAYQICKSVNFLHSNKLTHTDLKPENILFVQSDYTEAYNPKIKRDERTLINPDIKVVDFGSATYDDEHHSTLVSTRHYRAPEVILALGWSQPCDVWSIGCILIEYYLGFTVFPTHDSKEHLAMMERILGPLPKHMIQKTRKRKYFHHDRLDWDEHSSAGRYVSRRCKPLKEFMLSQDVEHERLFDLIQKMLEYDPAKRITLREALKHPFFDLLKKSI

For `O=C1NC(NCCN2CCOCC2)=N/C1=C\c1ccc2ncsc2c1` [Example 29, (Z)-5-(benzo[d]thiazol-6-ylmethylene)-2-((2-morpholinoethyl)amino)-3,5-dihydro-4H-imidazol-4-one], in test [1], the IC50 lay within 100 to 1000 nM. In addition, in test [2], the “Avg 1 uM (average myocyte proliferation)” value is on record as “** (10%-50%)”, the “Avg 3 uM (average myocyte proliferation)” value was “* (<10% growth relative to blank myocyte growth without compound added.)” and the “Avg 10 uM (average myocyte proliferation)” value (“Avg 10 uM” below) was “*** (>50%)”.

For `CN1C(=O)/C(=C/c2ccc3c(c2)OCO3)N=C1N(C)c1ccccc1` [Example 3, (Z)-5-(benzo[d][1,3]dioxol-5-ylmethylene)-3-methyl-2-(methyl(phenyl)amino)-3,5-dihydro-4H-imidazol-4-one], in test [1], the IC50 is 1000 to 10000 nM. In addition, in test [2], the “Avg 1 uM (average myocyte proliferation)” value is “* (<10% growth relative to blank myocyte growth without compound added.)”, the “Avg 3 uM (average myocyte proliferation)” value is “* (<10% growth relative to blank myocyte growth without compound added.)” and the “Avg 10 uM” value is “* (<10% growth relative to blank myocyte growth without compound added.)”.

As to `CN(Cc1ccccc1)C1=N/C(=C\c2ccc3ncsc3c2)C(=O)N1` [Example 28, (Z)-5-(benzo[d]thiazol-6-ylmethylene)-2-(benzyl(methyl)amino)-3,5-dihydro-4H-imidazol-4-one], the half-inhibitory concentration (IC50) in test [1] fell in the range of 100 to 1000 nM. For the same compound, in test [2], the “Avg 1 uM (average myocyte proliferation)” value is recorded as “* (<10% growth relative to blank myocyte growth without compound added.)”, the “Avg 3 uM (average myocyte proliferation)” value was “* (<10% growth relative to blank myocyte growth without compound added.)” and the “Avg 10 uM” value is on record as “* (<10% growth relative to blank myocyte growth without compound added.)”.

Consider `Cn1ncc2ccc(/C=C3\N=C(Nc4ccc5ncsc5c4)NC3=O)cc21` [Example 80, (Z)-2-(benzo[d]thiazol-6-ylamino)-5-((1-methyl-1H-indazol-6-yl)methylene)-3,5-dihydro-4H-imidazol-4-one], for which, in test [1], the IC50 was > 10000 nM. Besides, in test [2], the “Avg 1 uM (average myocyte proliferation)” value is “* (<10% growth relative to blank myocyte growth without compound added.)” and the “Avg 3 uM (average myocyte proliferation)” value is “* (<10% growth relative to blank myocyte growth without compound added.)”.

Regarding `O=C1NC(Nc2ccc3ncsc3c2)=N/C1=C\c1ccc2c(c1)OCCO2` [Example 74, (Z)-2-(benzo[d]thiazol-6-ylamino)-5-((2,3-dihydrobenzo[b][1,4]dioxin-6-yl)methylene)-3,5-dihydro-4H-imidazol-4-one], the IC50 in test [1] was > 10000 nM. Moreover, in test [2], the “Avg 1 uM (average myocyte proliferation)” value is “* (<10% growth relative to blank myocyte growth without compound added.)” and the “Avg 3 uM (average myocyte proliferation)” value is “*** (>50%)”.

In the case of `O=C1NC(N(Cc2ccccc2)c2ccccc2)=N/C1=C\c1ccc2ncsc2c1` [Example 41, (Z)-5-(benzo[d]thiazol-6-ylmethylene)-2-(benzyl(phenyl)amino)-3,5-dihydro-4H-imidazol-4-one], the IC50 in test [1] is < 100 nM. For the same compound, in test [2], the “Avg 1 uM (average myocyte proliferation)” value was “* (<10% growth relative to blank myocyte growth without compound added.)”, the “Avg 3 uM (average myocyte proliferation)” value is “* (<10% growth relative to blank myocyte growth without compound added.)” and the “Avg 10 uM” value is given as “** (10%-50%)”.

As to `O=C1NC(N(CCO)c2ccccc2)=N/C1=C\c1ccc2c(c1)OCO2` [Example 13, (Z)-5-(benzo[d][1,3]dioxol-5-ylmethylene)-2-((2-hydroxyethyl)(phenyl)amino)-3,5-dihydro-4H-imidazol-4-one], in test [1], the IC50 lay in the range of 100 to 1000 nM. In test [2], the “Avg 1 uM (average myocyte proliferation)” value is recorded as “* (<10% growth relative to blank myocyte growth without compound added.)” and the “Avg 3 uM (average myocyte proliferation)” value is reported as “** (10%-50%)”.

Regarding `O=C1NC(Nc2ccccc2)=N/C1=C\c1ccc2nn[nH]c2c1` [Example 56, (Z)-5-((1H-benzo[d][1,2,3]triazol-6-yl)methylene)-2-(phenylamino)-3,5-dihydro-4H-imidazol-4-one], the IC50 in test [1] was < 100 nM. Besides, in test [2], the “Avg 1 uM (average myocyte proliferation)” value is on record as “* (<10% growth relative to blank myocyte growth without compound added.)” and the “Avg 3 uM (average myocyte proliferation)” value is listed as “* (<10% growth relative to blank myocyte growth without compound added.)”.

Consider `O=C1NC(Nc2ccccc2)=N/C1=C\c1cncs1` [Example 15, (Z)-2-(phenylamino)-5-(thiazol-5-ylmethylene)-3,5-dihydro-4H-imidazol-4-one], for which the IC50 in test [1] is > 10000 nM. In test [2], the “Avg 1 uM (average myocyte proliferation)” value was “* (<10% growth relative to blank myocyte growth without compound added.)” and the “Avg 3 uM (average myocyte proliferation)” value was “** (10%-50%)”.

Regarding `CN(C1=N/C(=C\c2ccc3ncsc3c2)C(=O)N1)c1ccc2ncsc2c1` [Example 83, (Z)-2-(benzo[d]thiazol-6-yl(methyl)amino)-5-(benzo[d]thiazol-6-ylmethylene)-3,5-dihydro-4H-imidazol-4-one], in test [1], the IC50 was < 100 nM. Also, in test [2], the “Avg 1 uM (average myocyte proliferation)” value is “** (10%-50%)” and the “Avg 3 uM (average myocyte proliferation)” value is listed as “** (10%-50%)”.

As to `O=C1NC(Nc2ccccc2)=N/C1=C\c1ccc2[nH]ccc2c1` [Example 51, (Z)-5-((1H-indol-5-yl)methylene)-2-(phenylamino)-3,5-dihydro-4H-imidazol-4-one], the IC50 in test [1] is > 10000 nM. Moreover, in test [2], the “Avg 1 uM (average myocyte proliferation)” value is listed as “** (10%-50%)”, the “Avg 3 uM (average myocyte proliferation)” value is recorded as “** (10%-50%)” and the “Avg 10 uM” value is reported as “** (10%-50%)”.

As to `O=C1NC(Nc2ccccc2)=N/C1=C\c1ccc2sccc2c1` [Example 72, (Z)-5-(benzo[b]thiophen-5-ylmethylene)-2-(phenylamino)-3,5-dihydro-4H-imidazol-4-one], the IC50 in test [1] is > 10000 nM. Moreover, in test [2], the “Avg 1 uM (average myocyte proliferation)” value is on record as “* (<10% growth relative to blank myocyte growth without compound added.)” and the “Avg 3 uM (average myocyte proliferation)” value is “* (<10% growth relative to blank myocyte growth without compound added.)”.

On to `O=C1NC(Nc2ccc(Cl)cc2)=N/C1=C\c1ccc2ncsc2c1` [Example 40, (Z)-5-(benzo[d]thiazol-6-ylmethylene)-2-((4-chlorophenyl)amino)-3,5-dihydro-4H-imidazol-4-one], for which the IC50 in test [1] was < 100 nM. Moreover, in test [2], the “Avg 1 uM (average myocyte proliferation)” value is “*** (>50%)”, the “Avg 3 uM (average myocyte proliferation)” value is recorded as “*** (>50%)” and the “Avg 10 uM” value is “*** (>50%)”.

Turning to `CN(C1=N/C(=C\c2ccc3c(c2)OCCO3)C(=O)N1)c1ccc2ncsc2c1` [Example 84, (Z)-2-(benzo[d]thiazol-6-yl(methyl)amino)-5-((2,3-dihydrobenzo[b][1,4]dioxin-6-yl)methylene)-3,5-dihydro-4H-imidazol-4-one], the IC50 in test [1] was 100 to 1000 nM. Further, in test [2], the “Avg 1 uM (average myocyte proliferation)” value is recorded as “* (<10% growth relative to blank myocyte growth without compound added.)” and the “Avg 3 uM (average myocyte proliferation)” value is “** (10%-50%)”.

Regarding `O=C1NC(Nc2ccccc2)=N/C1=C\c1ccc2ncsc2c1` [Example 6, (Z)-5-(benzo[d]thiazol-6-ylmethylene)-2-(phenylamino)-3,5-dihydro-4H-imidazol-4-one], in test [1], the IC50 was < 100 nM. Besides, in test [2], the “Avg 1 uM (average myocyte proliferation)” value is “*** (>50%)”, the “Avg 3 uM (average myocyte proliferation)” value was “** (10%-50%)” and the “Avg 10 uM” value is “* (<10% growth relative to blank myocyte growth without compound added.)”.

(Values after US12643887B2, “Heterocyclic derivatives with cardiomyocyte proliferation activity for treatment of heart diseases” (Tongji University, priority 2019, dated 2026).)
